Data on 32 sequences can be found in article PMC12057046, “Elucidation of short linear motif-based interactions of the MIT and rhodanese domains of the ubiquitin-specific protease 8” (Biology Direct, 2025).

The test deals with USP8 MIT domain. Put plainly: Peptide-phage display-based deep mutational scanning (DMS), USP8 MIT domain. The test is classed as binding, human. Conditions: bait USP8_MIT__P40818_1_142. The gist of the method:
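Four rounds of phage selection against immobilized GST-tagged bait (GST control pre-clearing) at 4 °C, using human disorderome or 16-mer deep mutational scanning library (all non-Cys substitutions), ≥3 replicates. Enriched pools sequenced by Illumina NGS; replicate-summed counts converted to averaged fractions and frequency PSSMs per wild-type peptide.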

The mark [1] stands for this setting: MLPH 482-497, ratio of averaged fractions of wild-type/mutant peptide pair, larger over smaller (direction to be read from the two fractions).
The mark [2] stands for this setting: sheet S3.B_ProP-PD_pairs, ratio within the wild-type/mutant pair, larger over smaller averaged fraction (direction from fraction_wt and fraction_mut).
[3] abbreviates: EFCAB12 (Q6NXP0) 2-17, pair of mutant with wild-type wt_00016 (MDDDYEAYHSLFLSLL), sheet S3.B_ProP-PD_pairs.

In the case of SEVSDYESRIAALRAA, the hit_pair_ratio under setting [1] is 2.23.
As for SEVHDIESRIAALRAA, the hit_pair_ratio under setting [1] stood at 28.09.
With MDDDYEAYHSLFLLLL, under setting [2], the hit_pair_ratio turned out to be 4.48.
The same measure, in the same setting: the figure for MDDDYEAYHSLYLSLL is 1.65.
Turning to SEVSDIESRIAAWRAA, the hit_pair_ratio under setting [1] was 2.60.
On the same count and under the same terms, the figure for SEVSDIESRINALRAA is 7.79.
MDDDYEAYHKLFLSLL: the hit_pair_ratio under setting [2] was 169.63.
MDHDYEAYHSLFLSLL [mut_04361]: under setting [3], the hit_pair_ratio was determined as 6.06.
Consider MDDDYEAYHSLFGSLL, for which the hit_pair_ratio under setting [2] was determined as 337.92.
On the same count and under the same terms, the figure for MDDDYEAYHSLFLFLL is 5.36.
As for MDMDYEAYHSLFLSLL [mut_04365], the hit_pair_ratio under setting [3] was 84.82.
On to MDDDYEAYWSLFLSLL, for which, under setting [2], the hit_pair_ratio was determined as 28.16.
With MDDDYQAYHSLFLSLL [mut_04422], the hit_pair_ratio under setting [3] was determined as 12.11.
SEVSDIESRIAALIAA: the hit_pair_ratio under setting [1] was 3.61.
Take MDYDYEAYHSLFLSLL [mut_04374]: under setting [3], the hit_pair_ratio amounted to 42.41.
As for MDDDYEAYHALFLSLL, under setting [2], the hit_pair_ratio is 168.96.
Regarding SEWSDIESRIAALRAA, the hit_pair_ratio under setting [1] came out at 1.11.
With SEVSDIESRIAALRWA, the hit_pair_ratio under setting [1] is reported as 7.79.
Turning to MDDDYEAYLSLFLSLL, the hit_pair_ratio under setting [2] is reported as 22.58.
SEVSDIEDRIAALRAA: under setting [1], the hit_pair_ratio is 4.82.
The sequence MDDDYERYHSLFLSLL [mut_04441] registered a hit_pair_ratio under setting [3] of 84.82.
The same measure, in the same setting: the value for MDDRYEAYHSLFLSLL [mut_04387] was 84.48.
Regarding SSVSDIESRIAALRAA, under setting [2], the hit_pair_ratio was found to be 24.28.
In the case of SEVWDIESRIAALRAA, the hit_pair_ratio under setting [1] is given as 1.49.
In turn, ADDDYEAYHSLFLSLL [mut_04321] yielded a hit_pair_ratio under setting [3] of 112.64.
On to SEVSDIESRIAALRAL, for which the hit_pair_ratio under setting [1] was determined as 1.15.
With MDDDYEAVHSLFLSLL, the hit_pair_ratio under setting [2] is reported as 48.27.
On to SEVSDIESRIMALRAA, for which the hit_pair_ratio under setting [1] is 6.39.
For the sequence MDDDYEAYHLLFLSLL, the hit_pair_ratio under setting [2] was 17.79.
Take SEVSDIESRIDALRAA: the hit_pair_ratio under setting [1] is 7.79.
Under setting [3], HDDDYEAYHSLFLSLL [mut_04326] yielded a hit_pair_ratio of 42.37.
The same measure, in the same setting: the figure for MDSDYEAYHSLFLSLL [mut_04370] is 42.24.
